Assay results from the supplement of paper PMC10733146.

Key:
Experiment in all cases: viability relative to DMSO control (fraction); higher = less drug effect (more viable cells)
Details in all cases: 48 h
[1] = system: primary AML patient cells (S071)
How it was run: (§1)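 In 384-well plates with compounds pre-plated at five concentrations (one well per concentration), primary mononuclear tumour cells were plated at 4 × 10^4 cells per well. The cells came from blood or bone marrow by Ficoll isolation or from processed lymph node, and were used fresh or cryopreserved. Culture ran for 48 h at 37 °C and 5% CO2 in RPMI-1640 containing penicillin/streptomycin, L-glutamine and human serum. Viability was read as CellTiter-Glo luminescence, normalised to the median of 16 inner DMSO wells.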

[2] = system: primary AML patient cells (S081)
How it was run: as §1

[3] = system: primary AML patient cells (S037)
How it was run: as §1

[4] = system: primary AML patient cells (S072)
How it was run: as §1

[5] = system: primary AML patient cells (S002)
How it was run: as §1

[6] = system: primary MCL patient cells (S068)
How it was run: as §1

[7] = system: primary AML patient cells (S091)
How it was run: as §1

[8] = system: primary AML patient cells (S055)
How it was run: as §1

[9] = system: primary MCL patient cells (S053)
How it was run: as §1

[10] = system: primary AML patient cells (S017)
How it was run: as §1

[11] = system: primary AML patient cells (S025)
How it was run: as §1

[12] = system: primary AML patient cells (S060)
How it was run: as §1

[13] = system: primary AML patient cells (S021)
How it was run: as §1

[14] = system: primary T-PLL patient cells (S008)
How it was run: as §1

[15] = system: primary B-PLL patient cells (S016)
How it was run: as §1

[16] = system: primary AML patient cells (S089)
How it was run: as §1

[17] = system: primary BL patient cells (S005)
How it was run: as §1

[18] = system: primary AML patient cells (S009)
How it was run: as §1

[19] = system: primary CLL patient cells (S043)
How it was run: as §1

[20] = system: primary DLBCL patient cells (S082)
How it was run: as §1

For `COc1cccc2c1C(=O)c1c(O)c3c(c(O)c1C2=O)C[C@@](O)(C(C)=O)C[C@@H]3O[C@H]1C[C@H](N)[C@H](O)[C@H](C)O1` [Daunorubicin], the viability ([1]; 0.0016 µM) was 1.04, the viability ([1]; 0.008 µM) was 0.272 and the viability ([1]; 0.04 µM) was 0.128. The viability ([1]; 0.2 µM) was 0.118, the viability ([1]; 1 µM) was 0.095 and the viability ([2]; 0.0016 µM) was 1.07. For the same compound, the viability ([2]; 0.008 µM) was 1.16, the viability ([2]; 0.04 µM) was 1.15 and the viability ([2]; 0.2 µM) was 1.2. The viability ([2]; 1 µM) was 0.0266, the viability ([3]; 0.0016 µM) was 1.06 and the viability ([3]; 0.008 µM) was 1.02. The viability ([3]; 0.04 µM) was 0.709, the viability ([3]; 0.2 µM) was 0.565 and the viability ([3]; 1 µM) was 0.368. It also gave a viability ([4]; 0.0016 µM) of 1.18, a viability ([4]; 0.008 µM) of 1.04 and a viability ([4]; 0.04 µM) of 0.844. The viability ([4]; 0.2 µM) was 0.589, the viability ([4]; 1 µM) was 0.0642 and the viability ([5]; 0.0016 µM) was 1.04. It also gave a viability ([5]; 0.008 µM) of 0.983, a viability ([5]; 0.04 µM) of 0.505 and a viability ([5]; 0.2 µM) of 0.323. For the same compound, the viability ([5]; 1 µM) was 0.241, the viability ([6]; 0.0016 µM) was 1.18 and the viability ([6]; 0.008 µM) was 0.943. It also gave a viability ([6]; 0.04 µM) of 0.449, a viability ([6]; 0.2 µM) of 0.252 and a viability ([6]; 1 µM) of 0.0233. It also gave a viability ([7]; 0.0016 µM) of 0.998, a viability ([7]; 0.008 µM) of 0.777 and a viability ([7]; 0.04 µM) of 0.515. For the same compound, the viability ([7]; 0.2 µM) was 0.558, the viability ([7]; 1 µM) was 0.0819 and the viability ([8]; 0.0016 µM) was 1.03. It also gave a viability ([8]; 0.008 µM) of 1.05, a viability ([8]; 0.04 µM) of 0.991 and a viability ([8]; 0.2 µM) of 0.904. For the same compound, the viability ([8]; 1 µM) was 0.0407, the viability ([9]; 0.0016 µM) was 1.12 and the viability ([9]; 0.008 µM) was 0.692. The viability ([9]; 0.04 µM) was 0.363, the viability ([9]; 0.2 µM) was 0.307 and the viability ([9]; 1 µM) was 0.446. The viability ([10]; 0.0016 µM) was 1.1, the viability ([10]; 0.008 µM) was 1.13 and the viability ([10]; 0.04 µM) was 1.07. It also gave a viability ([10]; 0.2 µM) of 0.745, a viability ([10]; 1 µM) of 0.0449 and a viability ([11]; 0.0016 µM) of 1.03. For the same compound, the viability ([11]; 0.008 µM) was 0.784, the viability ([11]; 0.04 µM) was 0.453 and the viability ([11]; 0.2 µM) was 0.431. The viability ([11]; 1 µM) was 0.0369, the viability ([12]; 0.0016 µM) was 1.16 and the viability ([12]; 0.008 µM) was 1.14. For the same compound, the viability ([12]; 0.04 µM) was 1.07, the viability ([12]; 0.2 µM) was 1.14 and the viability ([12]; 1 µM) was 0.0333. For the same compound, the viability ([13]; 0.0016 µM) was 1.09, the viability ([13]; 0.008 µM) was 0.972 and the viability ([13]; 0.04 µM) was 0.424. The viability ([13]; 0.2 µM) was 0.216, the viability ([13]; 1 µM) was 0.145 and the viability ([14]; 0.0016 µM) was 1.08. For the same compound, the viability ([14]; 0.008 µM) was 1.09, the viability ([14]; 0.04 µM) was 0.947 and the viability ([14]; 0.2 µM) was 0.82. It also gave a viability ([14]; 1 µM) of 0.0568, a viability ([15]; 0.0016 µM) of 1.21 and a viability ([15]; 0.008 µM) of 0.74. For the same compound, the viability ([15]; 0.04 µM) was 0.0721, the viability ([15]; 0.2 µM) was 0.0359 and the viability ([15]; 1 µM) was 0.0137. For the same compound, the viability ([16]; 0.0016 µM) was 1.09, the viability ([16]; 0.008 µM) was 1.16 and the viability ([16]; 0.04 µM) was 0.289. The viability ([16]; 0.2 µM) was 0.132, the viability ([16]; 1 µM) was 0.0299 and the viability ([17]; 0.0016 µM) was 1.06. It also gave a viability ([17]; 0.008 µM) of 1.09, a viability ([17]; 0.04 µM) of 1.02 and a viability ([17]; 0.2 µM) of 0.929. For the same compound, the viability ([17]; 1 µM) was 0.716, the viability ([18]; 0.0016 µM) was 1.1 and the viability ([18]; 0.008 µM) was 0.833. The viability ([18]; 0.04 µM) was 0.722, the viability ([18]; 0.2 µM) was 0.378 and the viability ([18]; 1 µM) was 0.0702. It also gave a viability ([19]; 0.0016 µM) of 1.11, a viability ([19]; 0.008 µM) of 1.12 and a viability ([19]; 0.04 µM) of 0.834. For the same compound, the viability ([19]; 0.2 µM) was 0.33, the viability ([19]; 1 µM) was 0.0261 and the viability ([20]; 0.0016 µM) was 1.1. It also gave a viability ([20]; 0.008 µM) of 1.07, a viability ([20]; 0.04 µM) of 0.838 and a viability ([20]; 0.2 µM) of 0.714. The viability ([20]; 1 µM) was 0.0208.

Work on `Nc1nc(Cl)nc2c1ncn2[C@@H]1O[C@H](CO)[C@@H](O)[C@@H]1F` [Clofarabine] yielded a viability ([1]; 0.024 µM) of 0.646, a viability ([1]; 0.12 µM) of 0.298 and a viability ([1]; 0.6 µM) of 0.219. The viability ([1]; 3 µM) was 0.217, the viability ([1]; 15 µM) was 0.211 and the viability ([2]; 0.024 µM) was 1.08. For the same compound, the viability ([2]; 0.12 µM) was 1.07, the viability ([2]; 0.6 µM) was 0.861 and the viability ([2]; 3 µM) was 0.684. The viability ([2]; 15 µM) was 0.415, the viability ([3]; 0.024 µM) was 1.01 and the viability ([3]; 0.12 µM) was 0.834. For the same compound, the viability ([3]; 0.6 µM) was 0.656, the viability ([3]; 3 µM) was 0.651 and the viability ([3]; 15 µM) was 0.627. For the same compound, the viability ([4]; 0.024 µM) was 0.863, the viability ([4]; 0.12 µM) was 0.762 and the viability ([4]; 0.6 µM) was 0.587. For the same compound, the viability ([4]; 3 µM) was 0.521, the viability ([4]; 15 µM) was 0.407 and the viability ([5]; 0.024 µM) was 0.696. It also gave a viability ([5]; 0.12 µM) of 0.427, a viability ([5]; 0.6 µM) of 0.375 and a viability ([5]; 3 µM) of 0.387. It also gave a viability ([5]; 15 µM) of 0.329, a viability ([6]; 0.024 µM) of 0.522 and a viability ([6]; 0.12 µM) of 0.301. For the same compound, the viability ([6]; 0.6 µM) was 0.203, the viability ([6]; 3 µM) was 0.156 and the viability ([6]; 15 µM) was 0.128. For the same compound, the viability ([7]; 0.024 µM) was 0.661, the viability ([7]; 0.12 µM) was 0.527 and the viability ([7]; 0.6 µM) was 0.482. The viability ([7]; 3 µM) was 0.459, the viability ([7]; 15 µM) was 0.425 and the viability ([8]; 0.024 µM) was 0.951. The viability ([8]; 0.12 µM) was 0.792, the viability ([8]; 0.6 µM) was 0.677 and the viability ([8]; 3 µM) was 0.507. It also gave a viability ([8]; 15 µM) of 0.446, a viability ([9]; 0.024 µM) of 0.492 and a viability ([9]; 0.12 µM) of 0.356. It also gave a viability ([9]; 0.6 µM) of 0.266, a viability ([9]; 3 µM) of 0.255 and a viability ([9]; 15 µM) of 0.211. It also gave a viability ([10]; 0.024 µM) of 1.06, a viability ([10]; 0.12 µM) of 0.91 and a viability ([10]; 0.6 µM) of 0.538. It also gave a viability ([10]; 3 µM) of 0.3, a viability ([10]; 15 µM) of 0.149 and a viability ([11]; 0.024 µM) of 0.528. It also gave a viability ([11]; 0.12 µM) of 0.46, a viability ([11]; 0.6 µM) of 0.478 and a viability ([11]; 3 µM) of 0.492. It also gave a viability ([11]; 15 µM) of 0.463, a viability ([12]; 0.024 µM) of 1.09 and a viability ([12]; 0.12 µM) of 1.06. It also gave a viability ([12]; 0.6 µM) of 0.723, a viability ([12]; 3 µM) of 0.402 and a viability ([12]; 15 µM) of 0.126. It also gave a viability ([13]; 0.024 µM) of 0.755, a viability ([13]; 0.12 µM) of 0.425 and a viability ([13]; 0.6 µM) of 0.286. For the same compound, the viability ([13]; 3 µM) was 0.21, the viability ([13]; 15 µM) was 0.201 and the viability ([14]; 0.024 µM) was 0.989. It also gave a viability ([14]; 0.12 µM) of 0.864, a viability ([14]; 0.6 µM) of 0.64 and a viability ([14]; 3 µM) of 0.562. It also gave a viability ([14]; 15 µM) of 0.551, a viability ([15]; 0.024 µM) of 0.711 and a viability ([15]; 0.12 µM) of 0.332. It also gave a viability ([15]; 0.6 µM) of 0.0601, a viability ([15]; 3 µM) of 0.034 and a viability ([15]; 15 µM) of 0.0319. The viability ([16]; 0.024 µM) was 0.851, the viability ([16]; 0.12 µM) was 0.737 and the viability ([16]; 0.6 µM) was 0.506. The viability ([16]; 3 µM) was 0.461, the viability ([16]; 15 µM) was 0.327 and the viability ([17]; 0.024 µM) was 0.929. For the same compound, the viability ([17]; 0.12 µM) was 0.925, the viability ([17]; 0.6 µM) was 0.761 and the viability ([17]; 3 µM) was 0.882. For the same compound, the viability ([17]; 15 µM) was 0.735, the viability ([18]; 0.024 µM) was 0.585 and the viability ([18]; 0.12 µM) was 0.541. The viability ([18]; 0.6 µM) was 0.391, the viability ([18]; 3 µM) was 0.381 and the viability ([18]; 15 µM) was 0.258. The viability ([19]; 0.024 µM) was 1, the viability ([19]; 0.12 µM) was 0.888 and the viability ([19]; 0.6 µM) was 0.457. For the same compound, the viability ([19]; 3 µM) was 0.284, the viability ([19]; 15 µM) was 0.157 and the viability ([20]; 0.024 µM) was 0.834. For the same compound, the viability ([20]; 0.12 µM) was 0.53, the viability ([20]; 0.6 µM) was 0.377 and the viability ([20]; 3 µM) was 0.362. For the same compound, the viability ([20]; 15 µM) was 0.319.
